Measurements as given in US11117898B2, “Pyrazolo-heteroaryl derivative, preparation method and medical use thereof” (Jiangsu Hengrui Medicine Co., Ltd., priority 2016, dated 2021).

Tested on: PBMC
Assay: Stimulation of the secretion of IFN-α from peripheral blood mononuclear cells (PBMC)
Type: cell-based, human
Details: minimal effective concentration: lowest concentration giving cytokine level at least 3 times the minimum detection limit; 24 hours incubation
Description: The ability of the compounds of the present invention to stimulate the secretion of IFN-α from PBMC was determined by the following experimental method:
The compound was diluted with pure DMSO to a maximum concentration of 5 mM, and a total of 9 points were obtained by a 4-fold gradient dilution. 4 μl of the compound were then added to 196 μl of RMPI 1640 medium containing 10% FBS and mixed well. 50 μl of the mixture were taken from each well and added to a new 96-well plate.
All reagents were equilibrated to room temperature. 60 ml of blood and PBS+2% FBS were added to a 250 ml culture flask, gently pipetted, mixed well and diluted. 15 ml of lymphocyte separation solution Ficoll-Paque PREMIUM and then 30 ml of diluted blood were added to a 50 ml PBMC centrifuge tube SepMate™-50. The mixture was centrifuged at 1200 g for 10 minutes at room temperature. The supernatant was taken and then centrifuged at 300 g for 8 minutes. The cells were re-suspended in the RMPI 1640 medium containing 10% FBS and counted, and the number of PBMCs was adjusted to 3.33×10^6 cells/ml. 150 μl of the cell solution were added to the plate added with the compound, and incubated in an incubator at 37° C., in 5.0% CO2 for 24 hours.
The cell culture plate was placed in a centrifuge, and centrifuged at 1200 rpm for 10 minutes at room temperature. 150 μl of the supernatant were taken from each well. The reagents in the human IFN-α kit were first equilibrated to normal temperature. The anti-IFN-α-Eu^3+-Cryptate conjugate and the anti-IFN-α-d2-conjugate were formulated in the dark according to the kit instructions, and both of them were mixed well with the conjugate buffer at a ratio of 1:40. 16 μl of the supernatant obtained by centrifugation were then added to each well. 2 μl of anti-IFN-α-Eu^3+-Cryptate conjugate and anti-IFN-α-d2-conjugate formulated just now were then added to each well. The plate was shaken and mixed well, and incubated in the dark at room temperature for 3 hours.
The PHERAStar was read in the HTRF mode. The lowest compound concentration that stimulated cytokine levels of at least 3 times higher than the minimum detection limit was defined as the minimal effective concentration (MEC) value of the compound in the cytokine stimulation test.
The ability of the compounds of the present invention to stimulate the secretion of IFN-α from PBMC was determined by the above test, and the obtained MEC values are shown in Table 3.

CCCCOc1nc(N)c2cnn(Cc3ccc(CN4CCC4)cc3)c2n1 [Example 2, 1-(4-(Azetidin-1-ylmethyl)benzyl)-6-butoxy-1H-pyrazolo[3,4-d]pyrimidin-4-amine]
MEC to stimulate the secretion of IFN-α from PBMC: 23 nM

CCCCOc1nc(N)c2cnn(Cc3ccc(CN4CCCCC4)cc3)c2n1 [Example 3, 6-Butoxy-1-(4-(piperidin-1-ylmethyl)benzyl)-1H-pyrazolo[3,4-d]pyrimidin-4-amine]
MEC to stimulate the secretion of IFN-α from PBMC: 20 nM

CCCCOc1nc(N)c2cnn(Cc3cccc(CN4CCCC4)c3)c2n1 [Example 4, 6-Butoxy-1-(3-(pyrrolidin-1-ylmethyl)benzyl)-1H-pyrazolo[3,4-d]pyrimidin-4-amine]
MEC to stimulate the secretion of IFN-α from PBMC: 100 nM

COCCOc1nc(N)c2cnn(Cc3ccc(CN4CCCC4)cc3)c2n1 [Example 7, 6-(2-Methoxyethoxy)-1-(4-(pyrrolidin-1-ylmethyl)benzyl)-1H-pyrazolo[3,4-d]pyrimidin-4-amine]
MEC to stimulate the secretion of IFN-α from PBMC: 89 nM
